Laboratory results as given in US9566312B2, “Cyclic peptides and use as medicines” (priority 2012, dated 2017).
Where two headings read alike, the source gives them in different places. Starred links: 1 amine or outer side, 2 acyl side, 3 side chain; linkers in the order of their positions; H or OH if unused. Non-standard residues stand in square brackets, D forms with d. Residues, ends and D or L forms follow the SMILES beside them. X10 = C[C@H](CCCOC(=O)NC1CCN(C)CC1)[C@@H](C(=O)[*:2])N(C)[*:1]; X25 = CCN1CCO[C@H](COC[C@@H](C)[C@@H](C(=O)[*:2])N(C)[*:1])C1; X58 = C[C@H](COCCN1CCN(C2CCC2)CC1)[C@@H](C(=O)[*:2])N(C)[*:1]; X1 = COC[C@@H]1CN(C[C@H](C)[C@@H](C(=O)[*:2])N(C)[*:1])CCO1; X22 = C[C@H](CN1CCN(C2CCC2)CC1)[C@@H](C(=O)[*:2])N(C)[*:1]; NMe(dihydroBmt) = CCCC[C@@H](C)[C@@H](O)[C@H](NC)C(=O)O; X17 = C[C@H](COCC(C)(C)O)[C@@H](C(=O)[*:2])N(C)[*:1]; X9 = C[C@@H](CN1CCOCC1)[C@@H](C(=O)[*:2])N(C)[*:1]; MeBmt = C/C=C/C[C@@H](C)[C@@H](O)[C@H](NC)C(=O)O; X13 = C[C@H](CC#N)[C@@H](C(=O)[*:2])N(C)[*:1]; NMeL = CN[C@@H](CC(C)C)C(=O)O; NMeV = CN[C@H](C(=O)O)C(C)C; dNMeA = CN[C@H](C)C(=O)O; Abu = CC[C@H](N)C(=O)O

Tests used:
[1] = target: organic anion transporting polypeptide 1B1 (OATP1B1) (Homo sapiens (Human), UniProt Q9Y6L6); assay: OATP assay in CHO-OATP1B1 cells;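 further: inhibition of probe substrate uptake into the cells, ten minutes exposure, accumulated substrate read by fluorescence once cells were lysed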
organic anion transporting polypeptide 1B1 (OATP1B1), sequence (Q9Y6L6 whole entry): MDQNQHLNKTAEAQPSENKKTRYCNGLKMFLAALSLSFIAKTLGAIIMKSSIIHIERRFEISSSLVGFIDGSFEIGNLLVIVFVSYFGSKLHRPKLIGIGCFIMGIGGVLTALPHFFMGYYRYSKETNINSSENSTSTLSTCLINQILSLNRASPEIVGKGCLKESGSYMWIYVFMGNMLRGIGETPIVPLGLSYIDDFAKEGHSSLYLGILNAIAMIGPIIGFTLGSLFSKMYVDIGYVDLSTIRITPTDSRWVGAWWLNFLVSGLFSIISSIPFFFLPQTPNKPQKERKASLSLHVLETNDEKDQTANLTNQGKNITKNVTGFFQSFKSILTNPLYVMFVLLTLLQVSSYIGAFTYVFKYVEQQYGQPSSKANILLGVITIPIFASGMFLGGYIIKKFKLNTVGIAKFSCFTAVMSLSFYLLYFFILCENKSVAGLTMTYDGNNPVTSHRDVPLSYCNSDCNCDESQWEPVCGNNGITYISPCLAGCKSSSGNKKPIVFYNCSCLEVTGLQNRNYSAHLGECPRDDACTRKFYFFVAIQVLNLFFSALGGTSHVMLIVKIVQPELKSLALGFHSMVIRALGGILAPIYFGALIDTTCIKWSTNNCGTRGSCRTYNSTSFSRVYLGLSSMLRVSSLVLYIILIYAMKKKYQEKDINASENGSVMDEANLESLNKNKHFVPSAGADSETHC
Description: In order to determine whether the compounds of the present invention interact with hepatic transporters, experiments were carried out that compared the concentration-dependent inhibition toward the organic anion transporting polypeptide 1B1 (OATP1B1) and the multidrug resistance associated protein 2 (MRP2).
The cells were cultured in DMEM/F12 +10% FBS+2 mM Ala-Gln+1% Pen-Strep for a period of two days, and the media was changed one day post-seeding. Prior to the assay, media was aspirated and were washed −3× with HBSS+10 mM HEPES and the solution was equilibrated for 15 min in HBSS+10 mM HEPES. Solutions containing the inhibitor were prepared in HBSS+10 mM HEPES (up to 1% DMSO). […] After 10 min, the substrate or substrate/inhibitor solution was aspirated and the cells were washed 3× with HBSS+10 mM HEPES. The amount of the transported probe substrate was determined by fluorescent photometry after cell lysis, and the IC50 was derived from the concentration-response curve.

CypF = CypF (Homo sapiens (Human), UniProt P30405); assay: Inhibitor binding to cyclophilin proteins by SPR, CypF; conditions: 1:1 binding model
CypF, sequence (P30405 30-207): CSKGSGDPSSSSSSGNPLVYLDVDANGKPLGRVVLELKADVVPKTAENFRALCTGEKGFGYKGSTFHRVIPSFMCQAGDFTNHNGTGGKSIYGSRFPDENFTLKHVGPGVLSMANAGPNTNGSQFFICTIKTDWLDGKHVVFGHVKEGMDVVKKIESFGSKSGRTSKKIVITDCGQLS
Outline: (§1)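 Mono-biotinylated avi-tagged cyclophilins captured on a Biotin CAPture chip. Single-cycle kinetics at 50 μL/min, 1 min contacts, 10 min final dissociation, in 10 mM HEPES pH 7.4, 150 mM NaCl, 0.05% P20, 3% DMSO. kon, koff and KD from a 1:1 binding model.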

[2] = system: genotype 1b subgenomic HCV replicon in Huh7.5 cells; type: cell-based, hepatitis C virus; conditions: read-out: RPLN-1b IC50
Outline: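 Huh7.5 cells carrying genotype 1b subgenomic HCV replicon with renilla luciferase-neomycin reporter, in phenol red-free DMEM without G418. Luciferase measured after 72 h compound exposure relative to DMSO-treated cells; cytotoxicity (CC50) by Cell Titer-Glo.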

[3] = system: peripheral blood mononuclear cells (PBMC); assay: Anti-proliferative or immunosuppressive activity, BrdU incorporation in PHA-stimulated PBMC; type: cell-based; conditions: PHA 3 μg/ml, 60 hour compound treatment; read-out: EMV PBMC IC50
Outline: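 Fresh PBMCs from two donors, 30,000 per well in X-VIVO 15 medium, stimulated with 3 μg/ml PHA to drive T-cell proliferation. Proliferation measured as BrdU incorporation into DNA by BrdU ELISA.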

cyclophilin B (CypB) = cyclophilin B (CypB) (Homo sapiens (Human), UniProt P23284); assay: Inhibitor binding to cyclophilin proteins by SPR, CypB; design: unit not given here; conditions: 1:1 binding model
cyclophilin B (CypB), sequence (P23284 34-216): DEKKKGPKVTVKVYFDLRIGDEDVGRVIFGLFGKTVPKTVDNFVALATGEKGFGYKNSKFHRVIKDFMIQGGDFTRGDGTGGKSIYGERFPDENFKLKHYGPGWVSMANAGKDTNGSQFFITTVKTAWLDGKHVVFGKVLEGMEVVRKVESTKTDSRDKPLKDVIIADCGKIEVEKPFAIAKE
Outline: as §1

CYP3A4 = CYP3A4 (Homo sapiens (Human), UniProt P08684); assay: Time-dependent inhibition of CYP3A4; conditions: for NIM TDI kinact/Ki: probe substrate midazolam;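 on all read-outs here: Two-step in vitro assay, kobs derived from residual CYP3A4 activity versus preincubation time per concentration, then kinact and KI by nonlinear fit of kobs against concentration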
CYP3A4, sequence (P08684 whole entry): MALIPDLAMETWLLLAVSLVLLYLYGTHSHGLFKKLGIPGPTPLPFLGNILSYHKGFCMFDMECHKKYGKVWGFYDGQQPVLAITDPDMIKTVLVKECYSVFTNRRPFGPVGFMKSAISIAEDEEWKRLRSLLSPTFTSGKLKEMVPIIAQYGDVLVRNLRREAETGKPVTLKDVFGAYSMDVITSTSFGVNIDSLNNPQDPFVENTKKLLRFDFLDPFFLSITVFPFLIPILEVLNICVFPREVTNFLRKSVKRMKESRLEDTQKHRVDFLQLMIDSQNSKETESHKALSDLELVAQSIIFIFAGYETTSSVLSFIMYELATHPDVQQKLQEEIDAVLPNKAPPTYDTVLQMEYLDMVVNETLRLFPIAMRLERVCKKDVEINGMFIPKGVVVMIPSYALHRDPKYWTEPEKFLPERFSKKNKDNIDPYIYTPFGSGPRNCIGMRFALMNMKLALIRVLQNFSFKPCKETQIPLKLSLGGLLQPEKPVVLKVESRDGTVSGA
Description: Method 5: Measuring Time-Dependent Inhibition of CYP3A4
The CYP3A4 time dependent inhibition potential of various inhibitors was determined by a two step in vitro assay. […] The inactivation rate constant (kobs) was obtained by plotting the activity remaining over pre-incubation time for each concentration of compound. The maximal inactivation rate (kinact) and the inactivation potency (KI) were calculated by non linear regression analysis of the inactivation rate constant (kobs) versus compound concentrations [I] curve according to the equation kobs=[kinact·[I]]/[KI+[I]]

cyclophilin A (CypA) = cyclophilin A (CypA) (Homo sapiens (Human), UniProt P62937); assay: Inhibitor binding to cyclophilin proteins by SPR, CypA; design: unit not given here; conditions: 1:1 binding model;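 further: Single-cycle kinetics on a Biacore T200, compound injected at several concentrations for 1 min each at 50 µL/min, then 10 min dissociation, in HEPES pH 7.4 buffer with 3% DMSO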
cyclophilin A (CypA), sequence (P62937 whole entry): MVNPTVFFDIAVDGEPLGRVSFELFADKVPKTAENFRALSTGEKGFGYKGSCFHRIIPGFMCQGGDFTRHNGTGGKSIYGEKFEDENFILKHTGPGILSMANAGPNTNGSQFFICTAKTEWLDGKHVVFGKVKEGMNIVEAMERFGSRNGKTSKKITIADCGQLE

[4] = genotype 1b replicon, 72 h incubation

Row | SMILES | IC50 [1] [nM] | CypF Kd (CypF) [nM] | IC50 [2, 4] [nM] | IC50 [3] [nM] | CypB Kd (cyclophilin B (CypB)) | Ki (CYP3A4) [nM] | CypA Kd (cyclophilin A (CypA)) | NIM TDI kinact/Ki (CYP3A4) [M⁻¹ s⁻¹] | IC50 [2] [nM] | KI (inactivation) (CYP3A4) [nM]
1 | C/C=C/C[C@@H](C)[C@@H](O)[C@H]1C(=O)N[C@@H](CC)C(=O)N(C)[C@H](C)C(=O)N(C)[C@@H]([C@H](C)CC#N)C(=O)N[C@@H](C(C)C)C(=O)N(C)[C@@H](CC(C)C)C(=O)N[C@@H](C)C(=O)N[C@H](C)C(=O)N(C)[C@@H](CC(C)C)C(=O)N(C)[C@@H](CC(C)C)C(=O)N(C)[C@@H](C(C)C)C(=O)N1C [Compound 2.10, 3-[D-Ala]-4-[(2S,3R)-4-cyano-3-methyl-2-(methylamino)butanoyl]-cyclosporin] (cyclo(A[dA][NMeL][NMeL][NMeV][MeBmt][Abu][dNMeA][X13]V[NMeL])) | 900 | 0.5 | 27 | 12900 | 0.5 | > 50000 | 1.2 |  |  | 
2 | C/C=C/C[C@@H](C)[C@@H](O)[C@H]1C(=O)N[C@@H](CC)C(=O)N(C)[C@H](C)C(=O)N(C)[C@@H]([C@H](C)COCCN2CCN(C3CCC3)CC2)C(=O)N[C@@H](C(C)C)C(=O)N(C)[C@@H](CC(C)C)C(=O)N[C@@H](C)C(=O)N[C@H](C)C(=O)N(C)[C@@H](CC(C)C)C(=O)N(C)[C@@H](CC(C)C)C(=O)N(C)[C@@H](C(C)C)C(=O)N1C [Compound 2.8.8, 3-[D-Ala]-4-[(2S,3S)-4-(2-(4-cyclobutylpiperazin-1-yl)ethoxy)-3-methyl-2-(methylamino)butanoyl]-cyclosporin] (cyclo(A[dA][NMeL][NMeL][NMeV][MeBmt][Abu][dNMeA][X58]V[NMeL])) | 3500 | 0.3 | 35 | 18900 | 0.5 |  | 0.5 | 12 |  | 
3 | C/C=C/C[C@@H](C)[C@@H](O)[C@H]1C(=O)N[C@@H](CC)C(=O)N(C)[C@H](C)C(=O)N(C)[C@@H]([C@H](C)COCC(C)(C)O)C(=O)N[C@@H](C(C)C)C(=O)N(C)[C@@H](CC(C)C)C(=O)N[C@@H](C)C(=O)N[C@H](C)C(=O)N(C)[C@@H](CC(C)C)C(=O)N(C)[C@@H](CC(C)C)C(=O)N(C)[C@@H](C(C)C)C(=O)N1C [Compound 2.7, 3-[D-Ala]-4-[(2S,3S)-4-(2-hydroxy-2-methylpropoxy)-3-methyl-2-(methylamino)butanoyl]-cyclosporin] (cyclo(A[dA][NMeL][NMeL][NMeV][MeBmt][Abu][dNMeA][X17]V[NMeL])) | 1800 | 0.9 |  |  | 1.2 |  | 2.5 | 25 |  | 
4 | C/C=C/C[C@@H](C)[C@@H](O)[C@H]1C(=O)N[C@@H](CC)C(=O)N(C)[C@H](C)C(=O)N(C)[C@@H]([C@H](C)COC[C@@H]2CN(CC)CCO2)C(=O)N[C@@H](C(C)C)C(=O)N(C)[C@@H](CC(C)C)C(=O)N[C@@H](C)C(=O)N[C@H](C)C(=O)N(C)[C@@H](CC(C)C)C(=O)N(C)[C@@H](CC(C)C)C(=O)N(C)[C@@H](C(C)C)C(=O)N1C [Compound 2.20.1, 3-[D-Ala]-4-[(2S,3S)-4-(((S)-4-ethylmorpholin-2-yl)methoxy)-3-methyl-2-(methylamino)butanoyl]-cyclosporin] (cyclo(A[dA][NMeL][NMeL][NMeV][MeBmt][Abu][dNMeA][X25]V[NMeL])) | 1900 | 0.5 |  |  | 0.7 |  | 0.7 | 6.7 |  | 
5 | C/C=C/C[C@@H](C)[C@@H](O)[C@H]1C(=O)N[C@@H](CC)C(=O)N(C)[C@H](C)C(=O)N(C)[C@@H]([C@@H](C)CN2CCO[C@H](COC)C2)C(=O)N[C@@H](C(C)C)C(=O)N(C)[C@@H](CC(C)C)C(=O)N[C@@H](C)C(=O)N[C@H](C)C(=O)N(C)[C@@H](CC(C)C)C(=O)N(C)[C@@H](CC(C)C)C(=O)N(C)[C@@H](C(C)C)C(=O)N1C [Compound 2.17.8, 3-[D-Ala]-4[(2S,3S)-2-Amino-4-((S)-2-methoxymethyl-morpholin-4-yl)-3-methyl-butanoyl]-cyclosporin] (cyclo(A[dA][NMeL][NMeL][NMeV][MeBmt][Abu][dNMeA][X1]V[NMeL])) |  | 0.6 | 22 | 36400 | 0.7 | > 50000 | 1.2 |  |  | 
6 | CCCC[C@@H](C)[C@@H](O)[C@H]1C(=O)N[C@@H](CC)C(=O)N(C)[C@H](C)C(=O)N(C)[C@@H]([C@H](C)CN2CCN(C3CCC3)CC2)C(=O)N[C@@H](C(C)C)C(=O)N(C)[C@@H](CC(C)C)C(=O)N[C@@H](C)C(=O)N[C@H](C)C(=O)N(C)[C@@H](CC(C)C)C(=O)N(C)[C@@H](CC(C)C)C(=O)N(C)[C@@H](C(C)C)C(=O)N1C [Compound 2.5.15, 1-dihydro-3-[D-Ala]-4[(2S,3R)-2-Amino-4-(4-cyclobutyl-piperazin-1-yl)-butanoyl]-cyclosporin] (cyclo([NMe(dihydroBmt)][Abu][dNMeA][X22]V[NMeL]A[dA][NMeL][NMeL][NMeV])) |  | 0.6 |  | 7600 | 0.7 |  | 1.4 |  | 18 | > 50000
7 | C/C=C/C[C@@H](C)[C@@H](O)[C@H]1C(=O)N[C@@H](CC)C(=O)N(C)[C@H](C)C(=O)N(C)[C@@H]([C@H](C)CCN2CCOCC2)C(=O)N[C@@H](C(C)C)C(=O)N(C)[C@@H](CC(C)C)C(=O)N[C@@H](C)C(=O)N[C@H](C)C(=O)N(C)[C@@H](CC(C)C)C(=O)N(C)[C@@H](CC(C)C)C(=O)N(C)[C@@H](C(C)C)C(=O)N1C (stereo in doubt) [Compound 2.18.1, 3-[D-Ala]-4-[(2S,3R)-3-methyl-2-(methylamino)-5-morpholinopentanoyl]-cyclosporin] |  | 0.9 | 22 | 16200 | 0.8 | > 50000 | 1.5 |  |  | 
8 | C/C=C/C[C@@H](C)[C@@H](O)[C@H]1C(=O)N[C@@H](CC)C(=O)N(C)[C@H](CCCN2CCOCC2)C(=O)N(C)[C@@H]([C@H](C)CS(C)(=O)=O)C(=O)N[C@@H](C(C)C)C(=O)N(C)[C@@H](CC(C)C)C(=O)N[C@@H](C)C(=O)N[C@H](C)C(=O)N(C)[C@@H](CC(C)C)C(=O)N(C)[C@@H](CC(C)C)C(=O)N(C)[C@@H](C(C)C)C(=O)N1C (stereo in doubt) [Compound 3.4.2, 3-[(R)-2-(methylamino)-5-morpholinopentanoyl]-4-[(2S,3S)-3-methyl-2-(methylamino)-4-(methylsulfonyl)butanoyl]-cyclosporin] |  | 5 | 1300 | 13800 | 4.4 | > 50000 | 8.7 |  |  | 
9 | C/C=C/C[C@@H](C)[C@@H](O)[C@H]1C(=O)N[C@@H](CC)C(=O)N(C)[C@H](C)C(=O)N(C)[C@@H]([C@H](C)CCCOC(=O)NC2CCN(C)CC2)C(=O)N[C@@H](C(C)C)C(=O)N(C)[C@@H](CC(C)C)C(=O)N[C@@H](C)C(=O)N[C@H](C)C(=O)N(C)[C@@H](CC(C)C)C(=O)N(C)[C@@H](CC(C)C)C(=O)N(C)[C@@H](C(C)C)C(=O)N1C [Compound 2.19.8, 3-[D-Ala]-4-[(2S,3R)-3-methyl-2-(methylamino)-6-(((1-methylpiperidin-4-yl)carbamoyl)oxy)hexanoyl]-cyclosporin] (cyclo(A[dA][NMeL][NMeL][NMeV][MeBmt][Abu][dNMeA][X10]V[NMeL])) | 7800 | 0.4 |  |  | 0.4 | > 50000 | 0.8 |  |  | 
10 | CCCC[C@@H](C)[C@@H](O)[C@H]1C(=O)N[C@@H](CC)C(=O)N(C)[C@H](C)C(=O)N(C)[C@@H]([C@@H](C)CN2CCOCC2)C(=O)N[C@@H](C(C)C)C(=O)N(C)[C@@H](CC(C)C)C(=O)N[C@@H](C)C(=O)N[C@H](C)C(=O)N(C)[C@@H](CC(C)C)C(=O)N(C)[C@@H](CC(C)C)C(=O)N(C)[C@@H](C(C)C)C(=O)N1C [Compound 2.17.7, 1-dihydro-3-[D-Ala]-4[(2S,3S)-2-Amino-3-methyl-4-morpholin-4-yl-butanoyl]-cyclosporin] (cyclo(A[dA][NMeL][NMeL][NMeV][NMe(dihydroBmt)][Abu][dNMeA][X9]V[NMeL])) |  | 0.7 | 15 |  | 0.7 | > 50000 | 1.5 |  |  | 
